System: Keratinocytes of newly born mice
Assay: antiproliferative potency: 3H thymidine incorporation in DNA of keratinocytes
Format: cell-based, mouse (neonatal NMRI mice)
Conditions: Keratinocyte; neonatal mouse keratinocytes, 24 hours with test substance in serum-free medium at 32.5° C., then 4 hours 3H methyl thymidine; read-out: IC50, inhibition of 3H thymidine incorporation in DNA
Experimental: Keratinocytes of newly born mice, with a slight change of the method of Yuspa, S. and Harris, C.
Neonatal NMRI mice of both sexes are killed by decapitation, the skin is removed, washed in an antibiotic-antimycotic solution and incubated with the dermal side downward in dispase II solution ([…] in tissue culture medium M199+25 mmol/1 of HEPES+15% fetal calf serum (FCS)+50 U/ml of penicillin/streptomycin (P/S) (preparation medium, PM) at 4° C. overnight. The epidermis is removed and an individual cell suspension is produced by trypsinization. After centrifuging, the cell sediment is resuspended, after trypan blue dyeing, the number of living small round cells is determined and the cells are sown in a density of 4×10^5 cells/cm^2 in Primaria 24-hole plates in tissue culture medium (M199+15% FCS+50 U/ml of P/S). […] Then 0.4 microCi/50 microliters of ^3 H methyl thymidine (40 Ci/mmol) is added. After 4 hours the medium is suctioned off and the reaction is ended by addition of 500 microliters of ice-cold 10% trichloroacetic acid (TCA). The cells are washed with TCA and PBS, lysed by incubation in a proteinase K solution (10 mmol/l of tris-HCl, 10 mmol/l of EDTA, 10 mmol/l of NaCl, 0.2% of Triton-X 100, pH 8.0, 50 micrograms/ml of […]) and the lysate is clarified by centrifuging. In the supernatant the radioactivity is determined scintillation photometrically and, after specific staining of the DNA with diamidinophenylindole (DAPI), the DNA concentration is fluorescence photometrically determined.

Compound | IC50
C=C1/C(=C\C=C2/CCC[C@]3(C)[C@@H]([C@H](C)CCCC(C)(C)O)CC[C@@H]23)C[C@@H](O)C[C@@H]1O [Calcitriol, 1alpha,25-dihydroxy-cholecalciferol, reference compound] | 2.7 nM
C=C1/C(=C\C=C2/CCC[C@]3(C)[C@@H]([C@H](C)/C=C/[C@H](O)CC(C)C)CC[C@@H]23)C[C@@H](O)C[C@@H]1O [Compound A, (5Z,7E,22E)-(1S,3R,24R)-9,10-seco-24a-homo-5,7,10(19),22-cholestatetraene-1,3,24-triol] | 6 nM
C=C1/C(=C\C=C2/CCC[C@]3(C)[C@@H]([C@H](C)/C=C/[C@@H](O)CC(C)C)CC[C@@H]23)C[C@@H](O)C[C@@H]1O [Compound B, (5Z,7E,22E)-(1S,3R,24S)-9,10-seco-24a-homo-5,7,10(19),22-cholestatetraene-1,3,24-triol] | 9.5 nM
